# Experimental data published in patent publication US20110039793A1, “Application of ginsenoside Rb1 in preparing medicaments for treating dilated cardiomyopathy” (priority 2008, published 2011).
# Experiments:
# [1] = system: cTnT^R141W transgenic dilated cardiomyopathy mice model; assay: M-mode echocardiography, cardiac function and morphous, once a month; assay type: in vivo; design: CO (Cardiac Output) / LVAW; d (left ventricular anterior wall thickness, end of diastole) / LV Mass (AW) (weight of the left ventricular) / Diameter; d (inner diameter of the left ventricular, end of diastole) / Volume; d (volume of the left ventricular, end of diastole) / SV (Stroke Volume): unit not given here; details: for EF (Ejection Fraction) / FS (Fractional Shortening) / LV Mass (AW) (weight of the left ventricular) / LVAW; d (left ventricular anterior wall thickness, end of diastole) / LVAW; s (left ventricular anterior wall thickness, end of systole) / LVPW; d (left ventricular posterior wall thickness, end of diastole) / LVPW; s (left ventricular posterior wall thickness, end of systole) / SV (Stroke Volume) / Volume; d (volume of the left ventricular, end of diastole) / Volume; s (volume of the left ventricular, end of systole) / CO (Cardiac Output) / Diameter; d (inner diameter of the left ventricular, end of diastole) / Diameter; s (inner diameter of the left ventricular, end of systole): 75 mg/kg in drinking water
# Description: The positive mice at 1.5 months old are distributed by weight and cardiac function uniformly into the model group and the ginsenoside Rb1 administration group according to the echocardiography result, and each group comprises twelve mice. Ginsenoside Rb1, 75 mg/kg (State Yao zhun Zi, Yun Nan Tean Na Pharmaceutical Co., Ltd) is put into animal drinking water, and continuously administered for seven months.
# Echocardiography detection is performed once a month. Mice were anesthetized with tribromoethanol, scanned by small animal ultrasonic apparatus (Vevo 770 small animal ultrasonic detection system, Canada), with 30 MHz probe, M-mode echocardiography were analyzed: Body weight (BW), LVPW, d (the thickness of the left ventricular posterior wall at the end of the diastole), LVPW, s (the thickness of the left ventricular posterior wall at the end of the systole), LVAW, d (the thickness of the left ventricular anterior wall at the end of the diastole), LVAW, s (the thickness of the left ventricular anterior wall at the end of the systole), LV Mass (the weight of the left ventricular), Diameter, s (the inner diameter of the left ventricular at the end of the systole), Diameter, d (the inner diameter of the left ventricular at the end of the diastole), Volume, s (the volume of the left ventricular at the end of the systole), Volume, d (the volume of the left ventricular at the end of the diastole), SV (Stroke Volume), EF (Ejection Fraction), FS (Fractional Shortening) and CO (Cardiac Output).
# [2] = system: cTnT^R141W transgenic dilated cardiomyopathy mice model; assay: Left ventricular ultrastructure, electron microscopy; assay type: in vivo; details: long-term administration
# Description: Effects on the left ventricular ultrastructure of the mice model with dilated cardiomyopathy after a long-term administration of ginsenoside Rb1 (electron microscopy)
# Fresh myocardial tissues are fixed with 2.5% glutaraldehyde solution, then post-fixed by 1% osmic acid, embedded by Epon812 after the acetone gradient dehydration, wherein the embedded number is five Epon812 per case, ultra-thin sections are double stained by uranyl acetate and lead citrate, and observing by JEM1230 type projection electron microscope. The apparatuses are JEM1230 type projection electron microscope (Japanese Electronics Company), LEICA UCT type microtome (Germany Leica Company).
# [3] = long-term administration, echocardiography
structure (smiles),measurement,setting,value
"CC(C)=CCC[C@](C)(O[C@@H]1O[C@H](CO[C@@H]2O[C@H](CO)[C@@H](O)[C@H](O)[C@H]2O)[C@@H](O)[C@H](O)[C@H]1O)[C@H]1CC[C@]2(C)[C@@H]1[C@H](O)C[C@@H]1[C@@]3(C)CC[C@H](O[C@@H]4O[C@H](CO)[C@@H](O)[C@H](O)[C@H]4O[C@@H]4O[C@H](CO)[C@@H](O)[C@H](O)[C@H]4O)C(C)(C)[C@@H]3CC[C@]12C [Rb1, ginsenoside Rb1]",EF (Ejection Fraction),[1]; 4 month of administration,51.07 ± 6.01
same,FS (Fractional Shortening),[1]; 4 month of administration,26.05 ± 3.64
same,LV Mass (AW) (weight of the left ventricular),[1]; 4 month of administration,131.15 ± 12.93
same,"LVAW; d (left ventricular anterior wall thickness, end of diastole)",[1]; 4 month of administration,0.81 ± 0.06
same,"LVAW; s (left ventricular anterior wall thickness, end of systole)",[1]; 4 month of administration,1.17 ± 0.11
same,"LVPW; d (left ventricular posterior wall thickness, end of diastole)",[1]; 4 month of administration,0.71 ± 0.06
same,"LVPW; s (left ventricular posterior wall thickness, end of systole)",[1]; 4 month of administration,0.89 ± 0.12
same,SV (Stroke Volume),[1]; 4 month of administration,48.37 ± 3.32
same,"Volume; d (volume of the left ventricular, end of diastole)",[1]; 4 month of administration,95.93 ± 13.01
same,"Volume; s (volume of the left ventricular, end of systole)",[1]; 4 month of administration,47.56 ± 11.76
same,CO (Cardiac Output),[1]; 5 month of administration,23.18 ± 3.13
same,"Diameter; d (inner diameter of the left ventricular, end of diastole)",[1]; 5 month of administration,4.93 ± 0.30
same,"Diameter; s (inner diameter of the left ventricular, end of systole)",[1]; 5 month of administration,3.86 ± 0.32
same,EF (Ejection Fraction),[1]; 5 month of administration,43.83 ± 3.93
same,FS (Fractional Shortening),[1]; 5 month of administration,21.76 ± 2.21
same,LV Mass (AW) (weight of the left ventricular),[1]; 5 month of administration,150.86 ± 25.12
same,"LVAW; d (left ventricular anterior wall thickness, end of diastole)",[1]; 5 month of administration,0.82 ± 0.12
same,"LVAW; s (left ventricular anterior wall thickness, end of systole)",[1]; 5 month of administration,1.13 ± 0.10
same,"LVPW; d (left ventricular posterior wall thickness, end of diastole)",[1]; 5 month of administration,0.74 ± 0.06
same,"LVPW; s (left ventricular posterior wall thickness, end of systole)",[1]; 5 month of administration,0.82 ± 0.08
same,SV (Stroke Volume),[1]; 5 month of administration,50.03 ± 5.63
same,"Volume; d (volume of the left ventricular, end of diastole)",[1]; 5 month of administration,115.02 ± 16.33
same,"Volume; s (volume of the left ventricular, end of systole)",[1]; 5 month of administration,64.99 ± 12.65
same,CO (Cardiac Output),[1]; 6 month of administration,25.99 ± 2.23
same,"Diameter; d (inner diameter of the left ventricular, end of diastole)",[1]; 6 month of administration,5.35 ± 0.19
same,"Diameter; s (inner diameter of the left ventricular, end of systole)",[1]; 6 month of administration,4.38 ± 0.19
same,EF (Ejection Fraction),[1]; 6 month of administration,37.03 ± 3.07
same,FS (Fractional Shortening),[1]; 6 month of administration,18.01 ± 1.71
same,LV Mass (AW) (weight of the left ventricular),[1]; 6 month of administration,180.65 ± 5.80
same,"LVAW; d (left ventricular anterior wall thickness, end of diastole)",[1]; 6 month of administration,0.74 ± 0.04
same,"LVAW; s (left ventricular anterior wall thickness, end of systole)",[1]; 6 month of administration,1.09 ± 0.09
same,"LVPW; d (left ventricular posterior wall thickness, end of diastole)",[1]; 6 month of administration,0.80 ± 0.01
same,"LVPW; s (left ventricular posterior wall thickness, end of systole)",[1]; 6 month of administration,0.93 ± 0.06
same,SV (Stroke Volume),[1]; 6 month of administration,51.20 ± 5.31
same,"Volume; d (volume of the left ventricular, end of diastole)",[1]; 6 month of administration,138.41 ± 11.40
same,"Volume; s (volume of the left ventricular, end of systole)",[1]; 6 month of administration,87.21 ± 8.99
same,CO (Cardiac Output),[1]; 7 month of administration,24.35 ± 4.80
same,"Diameter; d (inner diameter of the left ventricular, end of diastole)",[1]; 7 month of administration,5.46 ± 0.34
same,"Diameter; s (inner diameter of the left ventricular, end of systole)",[1]; 7 month of administration,4.60 ± 0.44
same,EF (Ejection Fraction),[1]; 7 month of administration,33.02 ± 6.64
same,FS (Fractional Shortening),[1]; 7 month of administration,15.92 ± 3.53
same,LV Mass (AW) (weight of the left ventricular),[1]; 7 month of administration,190.72 ± 20.29
same,"LVAW; d (left ventricular anterior wall thickness, end of diastole)",[1]; 7 month of administration,0.79 ± 0.12
same,"LVAW; s (left ventricular anterior wall thickness, end of systole)",[1]; 7 month of administration,1.08 ± 0.17
same,"LVPW; d (left ventricular posterior wall thickness, end of diastole)",[1]; 7 month of administration,0.82 ± 0.13
same,"LVPW; s (left ventricular posterior wall thickness, end of systole)",[1]; 7 month of administration,0.87 ± 0.19
same,SV (Stroke Volume),[1]; 7 month of administration,47.35 ± 6.92
same,"Volume; d (volume of the left ventricular, end of diastole)",[1]; 7 month of administration,145.92 ± 21.42
same,"Volume; s (volume of the left ventricular, end of systole)",[1]; 7 month of administration,98.58 ± 22.36
same,cardiac function,[1]; [3],improve the cardiac function
same,dilation of cardiac chamber,[1]; [3],significantly reduce
same,intercalated disc structure,[2],clear
same,mitochondrial structures,[2],most mitochondrial structures are normal
same,myocytes structure,[2],clear structures
same,sarcoplasmic reticulum,[2],slightly dilated
